Assay results as given in article PMC2782520 (Biochemistry, 2009).

Key:
[1] = target: ERβ LBD (amino acids 257–502) (Homo sapiens, UniProt Q92731); test: Differential HDX mass spectrometry of ERβLBD with and without ligand; format: binding; conditions: for Average difference in deuterium levels, LOOP 271-294 / Average difference in deuterium levels, LOOP 271-295 / Average difference in deuterium levels, LOOP 273-294 / Average difference in deuterium levels, LOOP 273-295 / Average difference in deuterium levels, LOOP 274-295 / Average difference in deuterium levels, LOOP 282-294 / Average difference in deuterium levels, LOOP 282-295: ERβLBD:ligand 1:10, average of 1, 30, 60, 900, 4200 sec, negative = protection
Sequence of ERβ LBD (amino acids 257–502) (Q92731 257-502): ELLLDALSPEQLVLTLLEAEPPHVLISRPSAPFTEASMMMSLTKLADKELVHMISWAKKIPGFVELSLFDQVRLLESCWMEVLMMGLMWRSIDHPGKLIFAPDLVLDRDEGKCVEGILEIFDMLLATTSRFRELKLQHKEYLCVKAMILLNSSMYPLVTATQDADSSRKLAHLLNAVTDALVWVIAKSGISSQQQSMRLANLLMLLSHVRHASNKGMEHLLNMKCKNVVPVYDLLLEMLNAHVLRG

[2] = target: T1, ERβ (Homo sapiens, UniProt Q92731); test: Cell based functional assay, ERE-luciferase in HEK 293 cells, agonist mode; conditions: for ERβ Agonist % stim: % stimulation versus DES maximum response; for EC50: read-out: ERβ Agonist EC50, ERE-luciferase, 24 h
T1 sequence (Q92731 whole entry): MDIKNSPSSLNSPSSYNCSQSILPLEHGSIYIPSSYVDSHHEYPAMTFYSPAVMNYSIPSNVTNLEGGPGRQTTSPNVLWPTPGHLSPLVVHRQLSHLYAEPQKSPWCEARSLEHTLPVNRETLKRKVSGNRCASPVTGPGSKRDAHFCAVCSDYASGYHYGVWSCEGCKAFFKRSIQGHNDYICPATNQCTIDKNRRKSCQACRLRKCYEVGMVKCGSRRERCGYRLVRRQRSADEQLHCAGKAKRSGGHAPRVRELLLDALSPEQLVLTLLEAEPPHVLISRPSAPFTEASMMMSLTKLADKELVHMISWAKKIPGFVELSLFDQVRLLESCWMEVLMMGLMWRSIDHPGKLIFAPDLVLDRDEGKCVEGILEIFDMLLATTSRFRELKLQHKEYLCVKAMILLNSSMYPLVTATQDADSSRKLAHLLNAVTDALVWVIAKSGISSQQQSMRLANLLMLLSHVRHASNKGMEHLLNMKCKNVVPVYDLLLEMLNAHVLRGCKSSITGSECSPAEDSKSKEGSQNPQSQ

[3] = tested on: ER β; conditions: ERβ versus ERα; cited from earlier work
[4] = target: T1, ERβ; test: Cell based functional assay, ERE-luciferase in HEK 293 cells, antagonist mode; conditions: for ERβ Antag % inhib.: HEK 293 cells, ERE-luciferase
[5] = target: T1, ERβ; test: ER competition binding assay
[6] = target: T2, ERα (Homo sapiens, UniProt P03372); test: ER competition binding assay
T2 sequence (P03372 1-595): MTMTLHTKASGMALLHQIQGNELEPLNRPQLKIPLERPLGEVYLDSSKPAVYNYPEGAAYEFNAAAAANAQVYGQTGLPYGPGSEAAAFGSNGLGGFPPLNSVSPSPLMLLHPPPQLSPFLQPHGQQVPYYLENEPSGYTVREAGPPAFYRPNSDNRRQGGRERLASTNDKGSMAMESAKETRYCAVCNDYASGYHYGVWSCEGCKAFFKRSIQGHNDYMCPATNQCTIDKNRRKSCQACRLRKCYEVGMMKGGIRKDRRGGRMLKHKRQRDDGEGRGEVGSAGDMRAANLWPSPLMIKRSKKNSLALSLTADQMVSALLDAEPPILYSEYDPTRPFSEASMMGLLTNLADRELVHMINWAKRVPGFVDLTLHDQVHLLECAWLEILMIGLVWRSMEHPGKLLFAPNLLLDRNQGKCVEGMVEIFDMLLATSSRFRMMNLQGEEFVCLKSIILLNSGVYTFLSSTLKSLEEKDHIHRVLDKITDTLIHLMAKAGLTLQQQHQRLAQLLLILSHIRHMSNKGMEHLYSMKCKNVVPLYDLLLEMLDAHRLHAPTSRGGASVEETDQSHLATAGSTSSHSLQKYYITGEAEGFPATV

ERβ Antag % inhib. [4] [%] | Ki [5] [nM] | Ki [6] [nM] | IC50 [4] [nM] | Compound | Average difference in deuterium levels, LOOP 271-294 [1] [%] | Average difference in deuterium levels, LOOP 271-295 [1] [%] | Average difference in deuterium levels, LOOP 273-294 [1] [%] | Average difference in deuterium levels, LOOP 273-295 [1] [%] | Average difference in deuterium levels, LOOP 274-295 [1] [%] | Average difference in deuterium levels, LOOP 282-294 [1] [%] | Average difference in deuterium levels, LOOP 282-295 [1] [%] | Protection to exchange, β-sheet1/β-sheet2 region ([1]; amino acid 355–362 of ERβLBD, p<0.001, positive = protection) | Protection (stabilization) of helix 3 to H/D exchange, ERβ ([1]; helix 3, amino acids 296–309 in ERβ, positive = protection) [%] | ERβ Agonist % stim [2] [%] | Binding to ER β tighter than to ERα [3] | EC50 [2] [nM]
 |  |  |  | CC/C(=C(\c1ccc(O)cc1)c1ccc(OCCN(C)C)cc1)c1ccccc1 [4-hydroxy tamoxifen, 4-hydroxytamoxifen] | −8 | −11 | −12 | −11 | −12 | −10 | −11 | ~ 20% | 13 |  |  | 
 |  |  |  | CC/C(=C(/CC)c1ccc(O)cc1)c1ccc(O)cc1 [DES, Diethylstilbestrol] | −10 | −10 | −12 | −10 | −10 | −8 | −10 |  |  | 97 |  | 
 |  |  |  | C[C@]12CC[C@@H]3c4ccc(O)cc4CC[C@H]3[C@@H]1CC[C@@H]2O [Estradiol, 17β-estradiol] | −6 | −7 | −9 | −6 | −8 | −7 | −6 |  |  | 100 |  | 
 |  |  |  | O=c1c(-c2ccc(O)cc2)coc2cc(O)cc(O)c12 [Genistein, genistein] |  |  |  |  |  |  |  |  |  |  | approximately 10 fold | 
103 |  |  |  | Oc1ccc2c(c1)CC[C@H](c1ccccc1)[C@@H]2c1ccc(OCCN2CCCC2)cc1 [Lasodoxifene, lasofoxifene] | −11 | −11 | −12 | −9 | −12 | −9 | −9 |  |  |  |  | 
 |  |  |  | O=C(c1ccc(OCCN2CCCCC2)cc1)c1c(-c2ccc(O)cc2)sc2cc(O)ccc12 [Raloxifene, raloxifene] | −7 | −7 | −9 | −7 |  | −6 | −7 |  |  |  |  | 
 |  |  |  | O=C(c1ccc(O)cc1)c1c(-c2ccc(O)cc2)sc2cc(O)ccc12 [compound 88074] | −7 | −8 | −9 | −7 | −8 | −7 | −7 |  |  | 104 |  | 232
108 | 1.3 | 0.32 | 204 | O=C(c1ccc(OCCN2CCCC2)cc1)c1c(-c2ccc(O)cc2)sc2cc(O)ccc12 [compound 117018] | −7 | −7 | −8 | −7 | −8 | −7 | −8 |  |  |  |  | > 10000

Compound | ERβ Antag % inhib. [4] [%] | Ki [5] [nM] | Ki [6] [nM] | IC50 [4] [nM] | Average difference in deuterium levels, LOOP 271-294 [1] [%] | Average difference in deuterium levels, LOOP 271-295 [1] [%] | Average difference in deuterium levels, LOOP 273-294 [1] [%] | Average difference in deuterium levels, LOOP 273-295 [1] [%] | Average difference in deuterium levels, LOOP 274-295 [1] [%] | Average difference in deuterium levels, LOOP 282-294 [1] [%] | Average difference in deuterium levels, LOOP 282-295 [1] [%] | Protection to exchange, β-sheet1/β-sheet2 region ([1]; amino acid 355–362 of ERβLBD, p<0.001, positive = protection) | Protection (stabilization) of helix 3 to H/D exchange, ERβ ([1]; helix 3, amino acids 296–309 in ERβ, positive = protection) [%] | ERβ Agonist % stim [2] [%] | Binding to ER β tighter than to ERα [3] | EC50 [2] [nM]
C[C@]12CC[C@@H]3c4ccc(O)cc4C[C@@H](CCCCCCCCC[S+]([O-])CCCC(F)(F)C(F)(F)F)[C@H]3[C@@H]1CC[C@@H]2O (stereo partly drawn) [ICI, ICI 182780] | 109 |  |  |  | −9 | −10 | −11 | −10 | −11 | −9 | −10 |  |  |  |  | 
